Assay: xn = mol fraction of the nth substance listed
Conditions: Liquid, Vibrating tube method

CCCCCCCCCCC [undecane] + CCCCCCC
Conditions	mass density [kg/m3]
352.96 K, 20000 kPa, x2 = 0.05	712.1
352.96 K, 20000 kPa, x2 = 0.5063	690.9
352.96 K, 21000 kPa, x2 = 0.05	712.9
352.96 K, 21001 kPa, x2 = 0.5063	691.8
352.96 K, 22001 kPa, x2 = 0.05	713.8
352.96 K, 22050 kPa, x2 = 0.5063	692.7
352.96 K, 23000 kPa, x2 = 0.05	714.6
352.96 K, 23000 kPa, x2 = 0.5063	693.6
352.96 K, 24000 kPa, x2 = 0.05	715.4
352.96 K, 24000 kPa, x2 = 0.5063	694.5
352.96 K, 25000 kPa, x2 = 0.05	716.2
352.96 K, 25000 kPa, x2 = 0.5063	695.3
352.97 K, 1000 kPa, x2 = 0.7482	654
352.97 K, 2000 kPa, x2 = 0.7482	655.3
352.97 K, 3000 kPa, x2 = 0.7482	656.6
352.97 K, 4000 kPa, x2 = 0.7482	657.8
352.97 K, 5000 kPa, x2 = 0.7482	659.1
352.97 K, 6000 kPa, x2 = 0.7482	660.3
352.97 K, 7000 kPa, x2 = 0.7482	661.5
352.97 K, 8000 kPa, x2 = 0.7482	662.7
352.97 K, 9000 kPa, x2 = 0.7482	663.9
352.97 K, 10000 kPa, x2 = 0.7482	665
352.97 K, 11000 kPa, x2 = 0.7482	666.1
352.97 K, 12000 kPa, x2 = 0.7482	667.2
352.97 K, 13000 kPa, x2 = 0.7482	668.3
352.97 K, 14000 kPa, x2 = 0.7482	669.4
352.97 K, 15000 kPa, x2 = 0.7482	670.5
352.97 K, 16000 kPa, x2 = 0.7482	671.5
352.97 K, 17000 kPa, x2 = 0.7482	672.5
352.97 K, 18000 kPa, x2 = 0.7482	673.5
352.97 K, 19000 kPa, x2 = 0.7482	674.5
352.97 K, 20000 kPa, x2 = 0.7482	675.5
352.97 K, 21000 kPa, x2 = 0.7482	676.5
352.97 K, 22000 kPa, x2 = 0.7482	677.4
352.97 K, 23000 kPa, x2 = 0.7482	678.3
352.97 K, 24000 kPa, x2 = 0.7482	679.2
352.97 K, 25000 kPa, x2 = 0.7482	680.2
352.99 K, 1015 kPa, x2 = 0.2346	685.9
352.99 K, 2016 kPa, x2 = 0.2346	687
352.99 K, 3016 kPa, x2 = 0.2346	688.1
352.99 K, 4017 kPa, x2 = 0.2346	689.2
352.99 K, 5018 kPa, x2 = 0.2346	690.2
352.99 K, 6019 kPa, x2 = 0.2346	691.3
352.99 K, 7020 kPa, x2 = 0.2346	692.3
352.99 K, 8020 kPa, x2 = 0.2346	693.3
352.99 K, 9021 kPa, x2 = 0.2346	694.4
352.99 K, 10022 kPa, x2 = 0.2346	695.3
352.99 K, 11022 kPa, x2 = 0.2346	696.3
352.99 K, 12023 kPa, x2 = 0.2346	697.3
352.99 K, 13024 kPa, x2 = 0.2346	698.2
352.99 K, 14025 kPa, x2 = 0.2346	699.2
352.99 K, 15026 kPa, x2 = 0.2346	700.1
352.99 K, 16027 kPa, x2 = 0.2346	701
352.99 K, 17028 kPa, x2 = 0.2346	701.9
352.99 K, 18030 kPa, x2 = 0.2346	702.8
352.99 K, 19030 kPa, x2 = 0.2346	703.7
352.99 K, 20031 kPa, x2 = 0.2346	704.5
352.99 K, 21066 kPa, x2 = 0.2346	705.4
352.99 K, 22068 kPa, x2 = 0.2346	706.3
352.99 K, 23071 kPa, x2 = 0.2346	707.1
352.99 K, 24073 kPa, x2 = 0.2346	707.9
352.99 K, 25076 kPa, x2 = 0.2346	708.7
362.87 K, 1001 kPa, x2 = 0.9511	628.1
362.87 K, 2000 kPa, x2 = 0.9511	629.7
362.87 K, 3000 kPa, x2 = 0.9511	631.1
362.87 K, 4000 kPa, x2 = 0.9511	632.6
362.87 K, 5000 kPa, x2 = 0.9511	634
362.87 K, 6000 kPa, x2 = 0.9511	635.4
362.87 K, 7000 kPa, x2 = 0.9511	636.8
362.87 K, 8000 kPa, x2 = 0.9511	638.2
362.87 K, 9000 kPa, x2 = 0.9511	639.5
362.87 K, 10000 kPa, x2 = 0.9511	640.8
362.87 K, 11000 kPa, x2 = 0.9511	642.1
362.87 K, 12000 kPa, x2 = 0.9511	643.4
362.87 K, 13000 kPa, x2 = 0.9511	644.6
362.87 K, 14001 kPa, x2 = 0.9511	645.8
362.87 K, 15001 kPa, x2 = 0.9511	647
362.87 K, 16000 kPa, x2 = 0.9511	648.2
362.87 K, 17001 kPa, x2 = 0.9511	649.3
362.87 K, 18001 kPa, x2 = 0.9511	650.5
362.87 K, 19000 kPa, x2 = 0.9511	651.6
362.87 K, 20000 kPa, x2 = 0.9511	652.7
362.87 K, 21001 kPa, x2 = 0.9511	653.8
362.87 K, 22000 kPa, x2 = 0.9511	654.9
362.87 K, 23001 kPa, x2 = 0.9511	655.9
362.87 K, 24000 kPa, x2 = 0.9511	656.9
362.87 K, 25000 kPa, x2 = 0.9511	658
362.91 K, 1000 kPa, x2 = 0.7482	645.5
362.91 K, 1023 kPa, x2 = 0.2346	678.2
362.91 K, 2000 kPa, x2 = 0.7482	646.9
362.91 K, 2024 kPa, x2 = 0.2346	679.4
362.91 K, 3000 kPa, x2 = 0.7482	648.3
362.91 K, 3026 kPa, x2 = 0.2346	680.6
362.91 K, 4000 kPa, x2 = 0.7482	649.6
362.91 K, 4027 kPa, x2 = 0.2346	681.7
362.91 K, 5000 kPa, x2 = 0.7482	650.9
362.91 K, 5028 kPa, x2 = 0.2346	682.8
362.91 K, 6000 kPa, x2 = 0.7482	652.2
362.91 K, 6029 kPa, x2 = 0.2346	683.9
362.91 K, 7000 kPa, x2 = 0.7482	653.5
362.91 K, 7031 kPa, x2 = 0.2346	685
362.91 K, 8000 kPa, x2 = 0.7482	654.7
362.91 K, 8032 kPa, x2 = 0.2346	686.1
362.91 K, 9000 kPa, x2 = 0.7482	656
362.91 K, 9033 kPa, x2 = 0.2346	687.1
362.91 K, 10000 kPa, x2 = 0.7482	657.2
362.91 K, 10035 kPa, x2 = 0.2346	688.2
362.91 K, 11000 kPa, x2 = 0.7482	658.4
362.91 K, 11036 kPa, x2 = 0.2346	689.2
362.91 K, 12000 kPa, x2 = 0.7482	659.5
362.91 K, 12037 kPa, x2 = 0.2346	690.2
362.91 K, 13000 kPa, x2 = 0.7482	660.7
362.91 K, 13038 kPa, x2 = 0.2346	691.2
362.91 K, 14000 kPa, x2 = 0.7482	661.8
362.91 K, 14040 kPa, x2 = 0.2346	692.2
362.91 K, 15000 kPa, x2 = 0.7482	662.9
362.91 K, 15041 kPa, x2 = 0.2346	693.2
362.91 K, 16000 kPa, x2 = 0.7482	664
362.91 K, 16043 kPa, x2 = 0.2346	694.1
362.91 K, 17000 kPa, x2 = 0.7482	665.1
362.91 K, 17044 kPa, x2 = 0.2346	695.1
362.91 K, 18000 kPa, x2 = 0.7482	666.2
362.91 K, 18046 kPa, x2 = 0.2346	696
362.91 K, 19000 kPa, x2 = 0.7482	667.2
362.91 K, 19047 kPa, x2 = 0.2346	696.9
362.91 K, 20000 kPa, x2 = 0.7482	668.3
362.91 K, 20049 kPa, x2 = 0.2346	697.8
362.91 K, 21000 kPa, x2 = 0.7482	669.3
362.91 K, 21083 kPa, x2 = 0.2346	698.8
362.91 K, 22000 kPa, x2 = 0.7482	670.3
362.91 K, 22086 kPa, x2 = 0.2346	699.6
362.91 K, 23000 kPa, x2 = 0.7482	671.3
362.91 K, 23089 kPa, x2 = 0.2346	700.5
362.91 K, 24000 kPa, x2 = 0.7482	672.2
362.91 K, 24092 kPa, x2 = 0.2346	701.4
362.91 K, 25000 kPa, x2 = 0.7482	673.2
362.91 K, 25095 kPa, x2 = 0.2346	702.2
362.92 K, 1001 kPa, x2 = 0.05	686.5
362.92 K, 2001 kPa, x2 = 0.05	687.6
362.92 K, 3000 kPa, x2 = 0.05	688.7
362.92 K, 4000 kPa, x2 = 0.05	689.8
362.92 K, 5000 kPa, x2 = 0.05	690.9
362.92 K, 6000 kPa, x2 = 0.05	692
362.92 K, 7000 kPa, x2 = 0.05	693
362.92 K, 8001 kPa, x2 = 0.05	694.1
362.92 K, 9000 kPa, x2 = 0.05	695.1
362.92 K, 10000 kPa, x2 = 0.05	696.1
362.92 K, 11000 kPa, x2 = 0.05	697.1
362.92 K, 12000 kPa, x2 = 0.05	698.1
362.92 K, 13000 kPa, x2 = 0.05	699.1
362.92 K, 14000 kPa, x2 = 0.05	700
362.92 K, 15000 kPa, x2 = 0.05	701
362.92 K, 16000 kPa, x2 = 0.05	701.9
362.92 K, 17000 kPa, x2 = 0.05	702.8
362.92 K, 18000 kPa, x2 = 0.05	703.7
362.92 K, 19000 kPa, x2 = 0.05	704.6
362.92 K, 20000 kPa, x2 = 0.05	705.5
362.92 K, 21000 kPa, x2 = 0.05	706.4
362.92 K, 22001 kPa, x2 = 0.05	707.3
362.92 K, 23000 kPa, x2 = 0.05	708.1
362.92 K, 24000 kPa, x2 = 0.05	708.9
362.92 K, 25000 kPa, x2 = 0.05	709.8
362.94 K, 2001 kPa, x2 = 0.5063	664.4
362.94 K, 3000 kPa, x2 = 0.5063	665.6
362.94 K, 4000 kPa, x2 = 0.5063	666.8
362.94 K, 5000 kPa, x2 = 0.5063	668
362.94 K, 6000 kPa, x2 = 0.5063	669.2
362.94 K, 7000 kPa, x2 = 0.5063	670.4
362.94 K, 8001 kPa, x2 = 0.5063	671.5
362.94 K, 9000 kPa, x2 = 0.5063	672.6
362.94 K, 10000 kPa, x2 = 0.5063	673.8
362.94 K, 11000 kPa, x2 = 0.5063	674.8
362.94 K, 12000 kPa, x2 = 0.5063	675.9
362.94 K, 13000 kPa, x2 = 0.5063	677
362.94 K, 14000 kPa, x2 = 0.5063	678
362.94 K, 15000 kPa, x2 = 0.5063	679.1
362.94 K, 16000 kPa, x2 = 0.5063	680.1
362.94 K, 17001 kPa, x2 = 0.5063	681.1
362.94 K, 18000 kPa, x2 = 0.5063	682.1
362.94 K, 19000 kPa, x2 = 0.5063	683.1
362.94 K, 20000 kPa, x2 = 0.5063	684
362.94 K, 21001 kPa, x2 = 0.5063	685
362.94 K, 22050 kPa, x2 = 0.5063	685.9
362.94 K, 23000 kPa, x2 = 0.5063	686.9
362.94 K, 24000 kPa, x2 = 0.5063	687.8
362.94 K, 25000 kPa, x2 = 0.5063	688.7

Source: the NIST ThermoML archive (doi:10.1021/je400055v)
